From PubChem BioAssay (NCI) come the findings set out here.

Some test systems named below: HOP-18 NSCLC; HS 578T breast; KM20L2 colon; MDA-MB-435; MDA-N; SNB-78 CNS; XF 498 CNS; RXF-631 renal; MDA-MB-231 breast.
Holding throughout (experiment): NCI tumour cell line growth inhibition, 48 h

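All cell lines were grown in 96-well plates and treated with compound for 48 hours. GI50 marks 50% less growth. TGI marks complete inhibition of growth.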

Consider `N#C/C(=C\c1ccc2ccccc2c1)C(=O)c1ccccc1`, for which the TGI was greater than 100 µM with HOP-18 NSCLC; 77.6 µM in the experiment with HS 578T breast; greater than 100 µM with KM20L2 colon; 43.2 µM with MDA-MB-435; greater than 100 µM with MDA-N; greater than 100 µM with SNB-78 CNS. The molecule also displayed a TGI in the experiment on XF 498 CNS greater than 100 µM.
`CC12CCC(=O)C[C@H]1CCC(OC=O)C2Br` (some centres not stated): the TGI in the experiment with HOP-18 NSCLC, in the experiment with KM20L2 colon and in the experiment with XF 498 CNS was greater than 100 µM each time.
Regarding `COC(=O)C(=Cc1cc(OC)c(OC)c(OC)c1-c1cc2c(cc1C1(C)OCCS1)OCO2)C(=O)OC` (configuration not stated), the TGI in the experiment with KM20L2 colon and in the experiment with RXF-631 renal was greater than 100 µM each time.
For the molecule `COc1cc(OC)c2c(=O)cc(-c3ccc(OC)c(OC)c3OC)oc2c1`, the TGI in the experiment on KM20L2 colon and in the experiment on XF 498 CNS was greater than 100 µM in each case.
Turning to `O=C(/C(=C/c1ccc(Cl)cc1)c1ccccc1)c1ccccc1`, the results for the TGI with HOP-18 NSCLC, with SNB-78 CNS and in the experiment with XF 498 CNS were 62.3 µM, 68.7 µM and 34.5 µM, respectively.
As to `c1ccc2c(OCCSCCCCCCCCCCSCCOc3cccc4ccccc34)cccc2c1`, the TGI in the experiment with HOP-18 NSCLC, in the experiment with KM20L2 colon and in the experiment with SNB-78 CNS was greater than 100 µM in each case.
Turning to `COc1c(O)c2c(=O)cc3c4c5c(cc(=O)c6c(O)c(OC)c(CC(C)O)c(c(c1CC(C)O)c24)c65)OCO3` (configuration not stated), the TGI came out at 8.3 µM in the experiment on HOP-18 NSCLC, 1.69 µM in the experiment with KM20L2 colon and 8.04 µM with SNB-78 CNS.
Turning to `COCC(OC)C(CC=C(C#N)C#N)OC` (configuration not stated), the TGI in the experiment on KM20L2 colon, in the experiment with SNB-78 CNS and in the experiment on XF 498 CNS was greater than 100 µM throughout.
Turning to `C/C(CC(=O)Nc1ccc(C)c(C)c1)=N\N(c1ccccc1)c1ccccc1`, the TGI in the experiment with HOP-18 NSCLC was greater than 100 µM; with KM20L2 colon, 26 µM; in the experiment on SNB-78 CNS it was greater than 100 µM; in the experiment with XF 498 CNS it was greater than 100 µM.
For the molecule `COC(=O)/C(C#N)=C1\N=NNN1c1ccc(OC)cc1`, the TGI in the experiment with HOP-18 NSCLC, with RXF-631 renal and in the experiment with SNB-78 CNS was greater than 100 µM each time.
Take `O=C(Nc1cccc(Cl)c1)C(=O)C(C(=O)c1ccc2ccccc2c1)C1OC(=O)c2ccccc21` (configuration not stated): the TGI in the experiment on HOP-18 NSCLC was 28.2 µM; in the experiment with KM20L2 colon it was greater than 100 µM; in the experiment on RXF-631 renal, 81.2 µM; with SNB-78 CNS, 50.6 µM.
For the molecule `O=C(OC1CCC(=C2SCCCS2)[C@H]1C1SCCCS1)c1ccccc1` (some centres not stated), the TGI in the experiment on KM20L2 colon and with RXF-631 renal was greater than 100 µM throughout.
For `CCCCCCCCCCCCCCCC(=O)OCCOCCOCCOCc1ccccc1`, the TGI in the experiment with HOP-18 NSCLC, in the experiment with SNB-78 CNS and in the experiment on XF 498 CNS was greater than 100 µM each time.
Turning to `CCOC(=O)N[C@H]1CCc2cc(OC)c(OC)c(OC)c2-c2ccc(SC)c(=O)cc21`, the TGI in the experiment on HOP-18 NSCLC was greater than 100 µM; in the experiment with HS 578T breast it was greater than 100 µM; in the experiment on KM20L2 colon, less than 0.01 µM; with MDA-N, greater than 100 µM; in the experiment with SNB-78 CNS it was greater than 100 µM; in the experiment with XF 498 CNS, 29.8 µM.
In the case of `CC(C)(C)c1cc(C(P(=O)(O)O)P(=O)(O)O)cc(C(C)(C)C)c1O`, the TGI in the experiment with HOP-18 NSCLC, in the experiment with KM20L2 colon and in the experiment with SNB-78 CNS was greater than 100 µM each time.
Take `COc1ccc(OCC(=O)O)c2c1CCCC2=O`: the TGI in the experiment with RXF-631 renal, in the experiment with SNB-78 CNS and with XF 498 CNS was greater than 100 µM throughout.
For the molecule `COC(=O)C1CCCC2(C1)OCCO2` (configuration not stated), the TGI in the experiment with HOP-18 NSCLC, in the experiment with KM20L2 colon, in the experiment on RXF-631 renal and with SNB-78 CNS was greater than 100 µM in each case.
Take `Cc1c(N(C)C)ccc2c(=O)c3cccc(CC(=O)O)c3oc12`: the TGI in the experiment with HOP-18 NSCLC, in the experiment on HS 578T breast, in the experiment on KM20L2 colon, in the experiment on MDA-MB-231 breast, in the experiment with MDA-MB-435 and in the experiment with MDA-N was greater than 100 µM in each case. For the same molecule, the TGI in the experiment on RXF-631 renal and with SNB-78 CNS was greater than 100 µM each time.
As to `C=CCCCCC1CCC2CCC(CCCCC=C)N12` (configuration not stated), the values for the TGI with HOP-18 NSCLC and in the experiment with KM20L2 colon were 60.9 µM and 25.7 µM, respectively.
For `CCC[CH2][Sn]([CH2]CCC)([O]C(=O)c1ccc(OC)c(OC)c1OC)[O][Sn]([CH2]CCC)([CH2]CCC)[O]C(=O)c1ccc(OC)c(OC)c1OC`, the GI50 with HOP-18 NSCLC was 0.27 µM; in the experiment with HS 578T breast, 0.282 µM; with KM20L2 colon it was 0.76 µM; in the experiment on MDA-MB-231 breast, 0.586 µM; in the experiment with MDA-MB-435, 0.579 µM; in the experiment on MDA-N, 0.357 µM. The GI50 is 0.0392 µM in the experiment on SNB-78 CNS and 0.104 µM in the experiment with XF 498 CNS. The TGI in the experiment on HOP-18 NSCLC was 0.473 µM; in the experiment on HS 578T breast, 1.81 µM; in the experiment on KM20L2 colon it was 2.12 µM; in the experiment with MDA-MB-231 breast it was 1.89 µM; with MDA-MB-435 it was 1.9 µM; with MDA-N, 1.66 µM. The TGI was 0.211 µM in the experiment with SNB-78 CNS and 0.229 µM in the experiment on XF 498 CNS.
As to `CC(C)C1=Cc2ccc3c(c2C(=O)C1=O)CCCC3(C)C`, the values for the TGI with HOP-18 NSCLC, in the experiment on KM20L2 colon and in the experiment on SNB-78 CNS were 6.27 µM, 42.7 µM and 16.6 µM, respectively.
